Measurements published in patent publication US11473151B2, “Diagnostic and therapeutic methods for cancer” (Genentech, Inc., priority 2017, dated 2022).

System: mUC patients (IMvigor210)
Assay: Association between mutations (FMOne panel, single genes and pathways) and response to atezolizumab or TMB
Format: in vivo, human
Source text: In addition, DNA was extracted from FFPE 10 micron sections from 293 patients and submitted to a Clinical Laboratory Improvement Amendments (CLIA)-certified, New York State-accredited, and College of American Pathologists (CAP)-accredited laboratory (Foundation Medicine, Cambridge, Mass.) for targeted next-generation sequencing (NGS)-based genomic profiling. Adaptor-ligated DNA underwent hybrid capture for all coding exons of 395 cancer-related genes plus select introns from 31 genes frequently rearranged in cancer (FMOne panel).
Captured libraries were sequenced to a median exon coverage depth of >500× (DNA) or 3M unique reads (RNA) using Agilent SURESELECT® v5 kit at 51 Mb on the ILLUMINA® HISEQ® 2500, and resultant sequences were analyzed for base substitutions, small insertions and deletions (indels), copy number alterations (focal amplifications and homozygous deletions), and gene fusions/rearrangements, as previously described (Frampton et al. Nat. Biotechnol. 31:1023-1031, 2013). Frequent germline variants from the 1000 Genomes Project (dbSNP142) were removed. To maximize mutation-detection accuracy (sensitivity and specificity) in impure clinical specimens, the test was previously optimized and validated to detect base substitutions at a ≥5% mutant allele frequency (MAF), indels with a ≥10% MAF with ≥99% accuracy, and fusions occurring within baited introns/exons with >99% sensitivity (Frampton et al. supra). Known confirmed somatic alterations deposited in the Catalog of Somatic Mutations in Cancer (COSMIC v62) are called at allele frequencies ≥1% (Forbes et al. Nucleic Acids Res. 39:D945-D950, 2011).
From the FMOne panel, tumor mutational burden was calculated from the number of short variants in coding regions (substitutions and indels, including synonymous alterations) that were detected. Known and predicted germline alterations as well as known somatic and likely somatic variants are not counted. The mutation burden per Mb is the number of mutations counted divided by the Mb of genomic target territory of the FMOne panel. Unless otherwise indicated, FMOne-based mutation burden was used for all analyses around mutation burden.
For each gene, a patient was called mutant if a known or likely mutation was reported for that gene. For pathway-based analyses, a patient was called mutant in a pathway if any gene within the pathway was reported to have a known or likely mutation. Otherwise, a patient was considered to be non-mutant. A Fisher's Exact Test was used to determine whether the number of mutant patients differed between responders (complete and partial responders) and non-responders (stable and progressive disease). An association between mutation status and mutation burden was tested using a Wilcoxon Rank Sum Test. Single gene p-values were corrected for the number of tests performed using Benjamini and Hochberg adjustment. For pathway-based analyses, nominal p-values are reported.

Q: “atezolizumab: anti-PD-L1 antibody (Genentech), CAS Registry Number 1422185-06-5, also known as MPDL3280A” was tested. Which estimate (IKBKE mutation status vs response (CR/PR vs. SD/PD)) did it give?
A: 0

Q: And the estimate (INPP4B mutation status vs response (CR/PR vs. SD/PD))?
A: 0.00E+00

Q: What about the estimate (IRS2 mutation status vs response (CR/PR vs. SD/PD)) of the same substance?
A: 4.96E−01

Q: And the estimate (JAK1 mutation status vs response (CR/PR vs. SD/PD))?
A: 0.00E+00

Q: What about the estimate (JAK2 mutation status vs response (CR/PR vs. SD/PD)) of the same substance?
A: 3.33E−01

Q: What about the estimate (JUN mutation status vs response (CR/PR vs. SD/PD)) of the same substance?
A: Inf

Q: What about the estimate (KDM5A mutation status vs response (CR/PR vs. SD/PD)) of the same substance?
A: Inf

Q: And the estimate (KDM5C mutation status vs response (CR/PR vs. SD/PD))?
A: 3.30E−01

Q: And the estimate (KDM6A mutation status vs response (CR/PR vs. SD/PD))?
A: 0.5153

Q: And the estimate (KDR mutation status vs response (CR/PR vs. SD/PD))?
A: 0

Q: And the estimate (KEAP1 mutation status vs response (CR/PR vs. SD/PD))?
A: 0

Q: And the estimate (KEL mutation status vs response (CR/PR vs. SD/PD))?
A: 0

Q: What about the estimate (KIT mutation status vs response (CR/PR vs. SD/PD)) of the same substance?
A: 0.3333

Q: And the estimate (KRAS mutation status vs response (CR/PR vs. SD/PD))?
A: 1.346

Q: What about the estimate (LRP1B mutation status vs response (CR/PR vs. SD/PD)) of the same substance?
A: 0.1555

Q: What about the estimate (LRP6 mutation status vs response (CR/PR vs. SD/PD)) of the same substance?
A: 0

Q: What about the estimate (LYN mutation status vs response (CR/PR vs. SD/PD)) of the same substance?
A: Inf

Q: And the estimate (LZTR1 mutation status vs response (CR/PR vs. SD/PD))?
A: 0

Q: And the estimate (MAGI2 mutation status vs response (CR/PR vs. SD/PD))?
A: Inf

Q: What about the estimate (MAP2K4 mutation status vs response (CR/PR vs. SD/PD)) of the same substance?
A: Inf

Q: And the estimate (MAP3K1 mutation status vs response (CR/PR vs. SD/PD))?
A: 0.3333

Q: What about the estimate (MAP3K13 mutation status vs response (CR/PR vs. SD/PD)) of the same substance?
A: Inf

Q: And the estimate (MCL1 mutation status vs response (CR/PR vs. SD/PD))?
A: 0.8339

Q: What about the estimate (MDM2 mutation status vs response (CR/PR vs. SD/PD)) of the same substance?
A: 0.4704

Q: What about the estimate (MDM4 mutation status vs response (CR/PR vs. SD/PD)) of the same substance?
A: Inf

Q: And the estimate (MEN1 mutation status vs response (CR/PR vs. SD/PD))?
A: 0

Q: What about the estimate (MET mutation status vs response (CR/PR vs. SD/PD)) of the same substance?
A: 0

Q: What about the estimate (MITF mutation status vs response (CR/PR vs. SD/PD)) of the same substance?
A: Inf

Q: What about the estimate (MLL2 mutation status vs response (CR/PR vs. SD/PD)) of the same substance?
A: 1.185

Q: What about the estimate (MLL3 mutation status vs response (CR/PR vs. SD/PD)) of the same substance?
A: 0

Q: What about the estimate (MPL mutation status vs response (CR/PR vs. SD/PD)) of the same substance?
A: 0

Q: And the estimate (MSH2 mutation status vs response (CR/PR vs. SD/PD))?
A: 0.6678

Q: And the estimate (MSH6 mutation status vs response (CR/PR vs. SD/PD))?
A: 1.346

Q: What about the estimate (MST1R mutation status vs response (CR/PR vs. SD/PD)) of the same substance?
A: Inf

Q: What about the estimate (MTOR mutation status vs response (CR/PR vs. SD/PD)) of the same substance?
A: 0.3333

Q: What about the estimate (MUTYH mutation status vs response (CR/PR vs. SD/PD)) of the same substance?
A: 0.6678

Q: And the estimate (MYC mutation status vs response (CR/PR vs. SD/PD))?
A: 1.354

Q: What about the estimate (MYCL1 mutation status vs response (CR/PR vs. SD/PD)) of the same substance?
A: 0.6605

Q: And the estimate (MYCN mutation status vs response (CR/PR vs. SD/PD))?
A: 0.2167

Q: And the estimate (MYST3 mutation status vs response (CR/PR vs. SD/PD))?
A: 0.6642

Q: And the estimate (NBN mutation status vs response (CR/PR vs. SD/PD))?
A: 0

Q: What about the estimate (NCOR1 mutation status vs response (CR/PR vs. SD/PD)) of the same substance?
A: 1.179

Q: What about the estimate (NF1 mutation status vs response (CR/PR vs. SD/PD)) of the same substance?
A: 0.4962

Q: What about the estimate (NF2 mutation status vs response (CR/PR vs. SD/PD)) of the same substance?
A: 0.3297

Q: And the estimate (NFE2L2 mutation status vs response (CR/PR vs. SD/PD))?
A: 0.3333

Q: And the estimate (NFKBIA mutation status vs response (CR/PR vs. SD/PD))?
A: Inf

Q: What about the estimate (NKX2−1 mutation status vs response (CR/PR vs. SD/PD)) of the same substance?
A: Inf

Q: And the estimate (NOTCH1 mutation status vs response (CR/PR vs. SD/PD))?
A: 1.005

Q: What about the estimate (NOTCH2 mutation status vs response (CR/PR vs. SD/PD)) of the same substance?
A: 0.6678

Q: And the estimate (NOTCH3 mutation status vs response (CR/PR vs. SD/PD))?
A: Inf

Q: And the estimate (NOTCH4 mutation status vs response (CR/PR vs. SD/PD))?
A: 0.6678

Q: What about the estimate (NRAS mutation status vs response (CR/PR vs. SD/PD)) of the same substance?
A: 0

Q: What about the estimate (NTRK1 mutation status vs response (CR/PR vs. SD/PD)) of the same substance?
A: 0

Q: What about the estimate (NTRK3 mutation status vs response (CR/PR vs. SD/PD)) of the same substance?
A: Inf

Q: What about the estimate (NUP93 mutation status vs response (CR/PR vs. SD/PD)) of the same substance?
A: 0.6678

Q: And the estimate (PALB2 mutation status vs response (CR/PR vs. SD/PD))?
A: 0.6678

Q: And the estimate (PARK2 mutation status vs response (CR/PR vs. SD/PD))?
A: Inf

Q: What about the estimate (PARP4 mutation status vs response (CR/PR vs. SD/PD)) of the same substance?
A: Inf

Q: And the estimate (PAX5 mutation status vs response (CR/PR vs. SD/PD))?
A: Inf

Q: What about the estimate (PBRM1 mutation status vs response (CR/PR vs. SD/PD)) of the same substance?
A: 0.1081

Q: What about the estimate (PDCD1LG2 mutation status vs response (CR/PR vs. SD/PD)) of the same substance?
A: 0.6678

Q: What about the estimate (PDGFRA mutation status vs response (CR/PR vs. SD/PD)) of the same substance?
A: 0

Q: And the estimate (PIK3C2B mutation status vs response (CR/PR vs. SD/PD))?
A: Inf

Q: What about the estimate (PIK3CA mutation status vs response (CR/PR vs. SD/PD)) of the same substance?
A: 0.7935

Q: And the estimate (PIK3CB mutation status vs response (CR/PR vs. SD/PD))?
A: Inf

Q: And the estimate (PIK3CG mutation status vs response (CR/PR vs. SD/PD))?
A: 0

Q: And the estimate (PIK3R1 mutation status vs response (CR/PR vs. SD/PD))?
A: 0.3297

Q: And the estimate (PIK3R2 mutation status vs response (CR/PR vs. SD/PD))?
A: 0

Q: What about the estimate (PMS2 mutation status vs response (CR/PR vs. SD/PD)) of the same substance?
A: 0

Q: And the estimate (POLE mutation status vs response (CR/PR vs. SD/PD))?
A: 0

Q: And the estimate (PRKCI mutation status vs response (CR/PR vs. SD/PD))?
A: 0.6678

Q: What about the estimate (PRSS8 mutation status vs response (CR/PR vs. SD/PD)) of the same substance?
A: 0

Q: And the estimate (PTCH2 mutation status vs response (CR/PR vs. SD/PD))?
A: 0

Q: And the estimate (PTEN mutation status vs response (CR/PR vs. SD/PD))?
A: 0.3224

Q: What about the estimate (PTPN11 mutation status vs response (CR/PR vs. SD/PD)) of the same substance?
A: Inf

Q: What about the estimate (PTPRD mutation status vs response (CR/PR vs. SD/PD)) of the same substance?
A: Inf

Q: And the estimate (RAD50 mutation status vs response (CR/PR vs. SD/PD))?
A: Inf

Q: And the estimate (RAD51C mutation status vs response (CR/PR vs. SD/PD))?
A: 0

Q: What about the estimate (RAD51 mutation status vs response (CR/PR vs. SD/PD)) of the same substance?
A: Inf

Q: What about the estimate (RAF1 mutation status vs response (CR/PR vs. SD/PD)) of the same substance?
A: 0.5846

Q: What about the estimate (RB1 mutation status vs response (CR/PR vs. SD/PD)) of the same substance?
A: 0.6832

Q: And the estimate (RBM10 mutation status vs response (CR/PR vs. SD/PD))?
A: 0.7743

Q: What about the estimate (REL mutation status vs response (CR/PR vs. SD/PD)) of the same substance?
A: 0

Q: What about the estimate (RICTOR mutation status vs response (CR/PR vs. SD/PD)) of the same substance?
A: 0.5352

Q: What about the estimate (RNF43 mutation status vs response (CR/PR vs. SD/PD)) of the same substance?
A: 0

Q: What about the estimate (ROS1 mutation status vs response (CR/PR vs. SD/PD)) of the same substance?
A: Inf

Q: What about the estimate (RPA1 mutation status vs response (CR/PR vs. SD/PD)) of the same substance?
A: Inf

Q: What about the estimate (RPTOR mutation status vs response (CR/PR vs. SD/PD)) of the same substance?
A: Inf

Q: And the estimate (RUNX1 mutation status vs response (CR/PR vs. SD/PD))?
A: 0.3333

Q: And the estimate (SDHA mutation status vs response (CR/PR vs. SD/PD))?
A: Inf

Q: What about the estimate (SETD2 mutation status vs response (CR/PR vs. SD/PD)) of the same substance?
A: 1.691

Q: What about the estimate (SF3B1 mutation status vs response (CR/PR vs. SD/PD)) of the same substance?
A: 0.1646

Q: What about the estimate (SLIT2 mutation status vs response (CR/PR vs. SD/PD)) of the same substance?
A: Inf

Q: What about the estimate (SMAD2 mutation status vs response (CR/PR vs. SD/PD)) of the same substance?
A: Inf

Q: What about the estimate (SMAD3 mutation status vs response (CR/PR vs. SD/PD)) of the same substance?
A: Inf

Q: What about the estimate (SMAD4 mutation status vs response (CR/PR vs. SD/PD)) of the same substance?
A: Inf

Q: What about the estimate (SMARCA4 mutation status vs response (CR/PR vs. SD/PD)) of the same substance?
A: 0.548

Q: What about the estimate (SOX2 mutation status vs response (CR/PR vs. SD/PD)) of the same substance?
A: Inf

Q: What about the estimate (SOX9 mutation status vs response (CR/PR vs. SD/PD)) of the same substance?
A: Inf

Q: And the estimate (SOX10 mutation status vs response (CR/PR vs. SD/PD))?
A: Inf
